The source of these data is patent publication US7884262B2, “Modified DMO enzyme and methods of its use” (Monsanto Technology LLC, priority 2006, dated 2011).

The test system of one data set is transgenic soybean lines. An excerpt:
(§1) Tobacco, tomato, soybeans and Arabidopsis were used for transgenic expression of the genetically engineered DMOc gene and confirmation of dicamba tolerance in plants expressing the gene. The DMOc coding sequence in binary vector pKLP36 was introduced into A. tumefaciens strain C58C1 containing the disarmed Ti plasmid pMP90 (Koncz and Schell, 1986) by triparental mating (Ditta 1980). The resultant transconjugants were used for tobacco (cv Xanthi) and tomato (cv Rutgers) transformation using the leaf disc protocol described by Horsch et al. (Horsch 1985). Arabidopsis thaliana was transformed by the floral dip technique (Clough and Bent, 1998). Transformation of soybean varieties Thorne and NE-3001 was carried out by cotyledonary-node Agrobacterium-mediated transformation system (Zhang et al., 1999).
(§2) Plants in the greenhouse were sprayed with solvent and commercial grade dicamba (Clarity; BASF) using a compressed air, motor-driven, track sprayer with a flat-fan 8002E nozzle traveling at 1.87 mph. Additives included; 28% urea ammonium nitrate at 1.25% v/v and nonionic surfactant at 1.0% v/v. The solution containing dicamba at various concentrations was applied at 182 L/ha ([…]). Soybean field plantings were sprayed with Clarity herbicide at 2.8 kg/ha (2.5 lb/ac).

The test system of data set [1] is homoplastidic transgenic tobacco plants containing a chloroplast-encoded dicamba monooxygenase gene.
Data set [2] has as its system nontransgenic tobacco plants. Conditions: for Herbicide damage symptoms: spray.
From the text: as §2
(§3) In this study, the concentration of dicamba employed provided a dose of 1.12 kg/ha. […] In this study, treatments were compared using 2.2 kg/ha dicamba on two T1 tobacco plants, one carrying DMOc lacking a chloroplast transit peptide and the other completely lacking the DMOc gene due to genetic segregation.

Data set [3] concerns Arabidopsis thaliana expressing the DMOc gene. As to conditions: 1.12 kg/ha.
From the text: as §1, §2, §3

For data set [4], the system named is Transgenic tomato plants carrying the genetically engineered DMOc gene. Conditions: first 0.56 kg/ha and subsequently 5.6 kg/ha.
From the text: as §1, §2, §3

Data set [5] concerns DMOc-containing transgenic tobacco plants.
From the text: as §1, §2, §3

Data set [6] can be described thus: DMO activity assay (DCSA formation by HPLC), steady state kinetics, pH and temperature optimum. The class given is biochemical. The procedure: Protein concentrations were determined by Bradford assay with rabbit IgG as standard. Proteins were separated by SDS-PAGE and stained with Coomassie Blue. DMO activity was measured by following the formation of DCSA which was separated by HPLC (Waters Corporation, Milford, Mass.) by using a Discovery C18 column (Supelco, Sigma-Aldrich, St. Louis, Mo.). The retention time for DCSA was 8 minutes and for dicamba was 9.5 minutes. For kinetic studies the DCSA was detected and quantified by fluorescence emission at 420 nm (excitation wavelength 310 nm) after separation on the HPLC column from reaction mixture. Set concentrations of DCSA (12 and 24 μM) were used as quantification standards.
Stock solution of dicamba (100, 200, 400, 800, 1000, 2000, 5000, and 10000 μM), 0.1 M KPi pH 7.2, 0.1 M FeSO4, 0.1 M NADH, and 1 M MgCl2 were used. The assays were performed at 30° C. for 20 minutes and the reaction was quenched by addition of 40 μl of H2SO4. For activity measurements DMO was coupled with an excess of purified ferredoxin and reductase from P. maltophilia strain DI-6.
Since the assay for DMO activity was a discontinuous assay, it was important to establish the time for which the assay has to be run in order to obtain meaningful kinetic parameters. The assay thus has to be run under initial condition as the amount of DCSA produced is linear for the time the assay is being run (FIG. 4). […] (FIG. 6).
The Michaelis-Menten parameters were determined by fitting the data to a nonlinear steady-state equation (Equation 1). The data were analyzed using Sigma plot 8.0 (Jandel Scientific). Vo=Vmax*[S]/(Km+[S]) Equation 1
The optimum pH and temperature were also determined for DMOw and DMOc. Optimum pH was measured at 30° C. for 20 minutes and optimum temperature determination was measured also for 20 minutes at pH 7.2 for both forms of the enzyme. The results are summarized in FIGS. 7-9 and are discussed below.

[7] abbreviates: steady state, substrate dicamba.
Setting [8] is: steady state, substrate dicamba, 30° C., 20 minutes.

Values joined by “and” are separate entries in the source; they are usually repeats but may differ in a detail not shown here. Equal entries are not always repeated. “Also recorded” adds a separate entry of the source. Where two headings read alike, the source gives them in different places.

As a reminder, the Km is the concentration of substrate that gives half-maximal velocity. As a reminder, the Vmax is the rate approached at saturating substrate. What is called kcat is the maximal rate divided by the concentration of active sites.

For `COc1c(Cl)ccc(Cl)c1C(=O)O` [dicamba, 3,6-dichloro-o-anisic acid], the tolerance entry is “strong tolerance” with transgenic soybean lines (2.8 kg/ha (highest level tested), two years of field trials); “significant tolerance” with transgenic soybean lines (2.8 kg/ha, greenhouse, most lines); “significant tolerance” in the data set with transgenic soybean lines (5.6 kg/ha, greenhouse, most lines); “strong tolerance” in data set [3]. For the same molecule, the “dicamba treatment level tolerated” value in the data set on transgenic soybean lines (DMOc in nuclear genome of soybean plants) is 2.8 kg/ha; in data set [5] (transgenic tobacco expressing DMOc), no less than 5.6 kg/ha. Also, the damage entry is recorded as “no apparent damage” in data set [1] (28 kg/ha (25 lb/ac), T1-T3 progeny); “only transitory damage” in data set [1] (112 kg/ha); “only transitory damage” in data set [1] (224 kg/ha); “severe damage” in data set [2] (5.6 kg/ha, post-emergence, nontransgenic plant); “no damage” in data set [4]. Further, the dicamba tolerance level entry in data set [1] (DMOc gene in chloroplast genome) is on record as “at least 28 kg/ha”. Also, the Herbicide damage symptoms result is reported as “easily detected” in data set [2] (0.017 kg/ha), “quite severe” in data set [2] (0.28 kg/ha) and “quite severe” in data set [2] (0.56 kg/ha). For the same molecule, the “damage caused by dicamba treatment” value in data set [2] (2.2 kg/ha, T1 plant lacking the DMOc gene due to genetic segregation) is reported as “fully susceptible”. In data set [5] (5.6 kg/ha, post-emergence), the symptoms entry was “few, if any symptoms”.

B1: DMOc: dicamba monooxygenase (DMO) variant comprising a cysteine at position 112 of SEQ ID NO:1 (protein)
chain: MATFVRNAWYVAALPEELSEKPLGRTILDTPLALYRQPDGVVAALLDICPHRFAPLSDGILVNGHLQCPYHGLEFDGGGQCVHNPHGNGARPASLNVRSFPVVERDALIWICPGDPALADPGAIPDFGCRVDPAYRTVGGYGHVDCNYKLLVDNLMDLGHAQYVHRANAQTDAFDRLEREVIVGDGEIQALMKIPGGTPSVLMAKFLRGANTPVDAWNDIRWNKVSAMLNFIAVAPEGTPKEQSIHSRGTHILTPETEASCHYFFGSSRNFGIDDPEMDGVLRSWQAQALVKEDKVVVEAIERRRAYVEANGIRPAMLSCDEAAVRVSREIEKLEQLEAA
Turning to B1, in data set [6] (DMOc vs DMOw), the “catalytic efficiency relative to DMOw” value is recorded as “five times better enzyme than DMOw; also recorded: five times more efficient than DMOw”. In addition, the Km in data set [6] (DMOc, Study no. 1-2) is 21 µM and 20 µM; in data set [6] (Michaelis-Menten parameters), 20.5 ± 5 µM; in data set [6] (setting [8]), 20 µM. Also, the Vmax in data set [6] (DMOc, Study no. 1-2) was 713 ± 43 nmol/min/mg and 676 ± 37 nmol/min/mg; in data set [6] (Michaelis-Menten parameters) it was 676 ± 37 nmol/min/mg; in data set [6] (setting [7]), 676 ± 37 × 10^−3 U/mg. Moreover, in data set [6] (setting [7]), the kcat turned out to be 70.41 s⁻¹.

B2: DMOw: unaltered (wild type) dicamba monooxygenase sequence from Pseudomonas maltophilia, strain DI-6; U.S. Pat. No. 7,022,896 (protein, UniProt Q5S3I3 2-339, looked up)
Dicamba O-demethylase, …: TFVRNAWYVAALPEELSEKPLGRTILDTPLALYRQPDGVVAALLDICPHRFAPLSDGILVNGHLQCPYHGLEFDGGGQCVHNPHGNGARPASLNVRSFPVVERDALIWIWPGDPALADPGAIPDFGCRVDPAYRTVGGYGHVDCNYKLLVDNLMDLGHAQYVHRANAQTDAFDRLEREVIVGDGEIQALMKIPGGTPSVLMAKFLRGANTPVDAWNDIRWNKVSAMLNFIAVAPEGTPKEQSIHSRGTHILTPETEASCHYFFGSSRNFGIDDPEMDGVLRSWQAQALVKEDKVVVEAIERRRAYVEANGIRPAMLSCDEAAVRVSREIEKLEQLEAA
B2: the “optimum pH for the assay” value in data set [6] (0.1 M Kpi buffer, 30° C., 20 minutes) is reported as 7.2. In addition, the Michaelis constant (Km) in data set [6] (DMOw, Study no. 1-3) was 49 µM and 46 µM; in data set [6] (Michaelis-Menten parameters) it was 49 ± 7 µM; in data set [6] (setting [8]), 49 µM. In addition, the Vmax in data set [6] (DMOw, Study no. 1-3) is 633 ± 24 nmol/min/mg and 583 ± 18 nmol/min/mg and 590 ± 19 nmol/min/mg; in data set [6] (Michaelis-Menten parameters), 633 ± 24 nmol/min/mg; in data set [6] (setting [7]), 633 ± 24 × 10^−3 U/mg. For the same molecule, the optimum temperature result in data set [6] (pH 7.2, 20 minutes) is “approximately 37 °C”. Moreover, the catalytic constant (kcat) in data set [6] (setting [7]) was found to be 36.63 s⁻¹.
